Results reported in ChEMBL document CHEMBL1201862, “PubChem BioAssay data set” (2004).
Calls of active or inactive are those of the source.

How the values were obtained:
[1] = molecular target: T1, Corticotropin-releasing factor receptor 2/Corticotropin-releasing factor-binding protein (Homo sapiens, UniProt P24387+Q13324); assay: activators of CRF receptor 2 with binding protein – uHTS hits, confirmation (AID 602473); type: functional; conditions: read-out: EC50_Mean
T1 sequence (Q13324 whole entry): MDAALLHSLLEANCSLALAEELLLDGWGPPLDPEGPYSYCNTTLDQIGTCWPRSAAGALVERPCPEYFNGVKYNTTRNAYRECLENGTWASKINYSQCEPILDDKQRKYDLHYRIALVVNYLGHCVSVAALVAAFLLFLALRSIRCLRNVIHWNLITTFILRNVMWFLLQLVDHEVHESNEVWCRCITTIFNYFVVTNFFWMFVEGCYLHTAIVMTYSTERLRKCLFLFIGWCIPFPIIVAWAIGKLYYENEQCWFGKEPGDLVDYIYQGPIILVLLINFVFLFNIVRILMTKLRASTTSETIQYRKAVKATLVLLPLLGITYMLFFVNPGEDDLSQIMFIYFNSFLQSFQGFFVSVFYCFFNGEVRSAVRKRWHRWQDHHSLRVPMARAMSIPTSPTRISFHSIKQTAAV
T1 sequence (P24387 whole entry): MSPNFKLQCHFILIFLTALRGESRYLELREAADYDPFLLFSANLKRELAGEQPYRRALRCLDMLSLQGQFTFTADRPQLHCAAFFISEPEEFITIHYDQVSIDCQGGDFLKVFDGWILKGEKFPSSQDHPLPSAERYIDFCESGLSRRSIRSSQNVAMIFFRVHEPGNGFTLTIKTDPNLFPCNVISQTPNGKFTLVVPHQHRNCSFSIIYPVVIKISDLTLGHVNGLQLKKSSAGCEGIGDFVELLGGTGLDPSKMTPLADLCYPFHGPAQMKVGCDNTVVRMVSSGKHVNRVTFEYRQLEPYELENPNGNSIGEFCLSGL

H9c2 = assay: cells; type: functional, cell-based; conditions: Rattus norvegicus, H9c2, Myocardium;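 also: confirmatory concentration-response retest of ultra-high-throughput screening hits for modulation of myocardial damage; cell death induced by hydrogen peroxide oxidative stress; compound pretreatment for 60 min then peroxide exposure for 2 h; potency is for protecting the cells against peroxide damage rather than for killing them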
Cytochrome P450 2C19 = Cytochrome P450 2C19 (Homo sapiens, UniProt P33261); assay: Cytochrome panel assay with activity outcomes. Panel member name: p450-cyp2c19 Compounds with AC50 equal or less than 10 uM are considered active; type: functional; conditions: read-out: AC50
Cytochrome P450 2C9 = Cytochrome P450 2C9 (Homo sapiens, UniProt P11712)
[2] = NIH-3T3 fibroblast cytotoxicity, dose response, cytotoxicity control, cell-based, fluorescence, Alamar Blue, secondary assay (AID 2327); type: functional;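 also: NIH-3T3 mouse fibroblasts cultured with fluconazole at 8 µg/mL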
Streptococcus = assay: Group A Streptococcus viability loss, dose response, counter-screen for streptokinase expression inhibitor project, luminescence, BacTiterGlo (AID 1915); type: functional, organism-based;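 also: potency for reduction of bacterial viability or growth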
[3] = system: Streptococcus sp. 'group A'; assay: growth inhibition of control SK(-) GAS strain, dose response, counter-screen for streptokinase expression inhibitor project, luminescence, kanamycin, BacTiterGlo, confirmation (AID 1900); type: functional, organism-based
[4] = Shn3 3'UTR reporter inhibitors, dose response, cell-based, Clone20 osteoblasts, firefly luciferase, cherry-picked (AID 624132); type: functional;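 also: firefly luciferase luminescence from reporter carrying the Shn3 3'UTR in osteoblasts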
Cytochrome P450 3A4 = Cytochrome P450 3A4 (Homo sapiens, UniProt P08684);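 also: CYP3A4 tested as one member of a cytochrome P450 panel screen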
Cytochrome P450 1A2 = molecular target: T2, Cytochrome P450 1A2 (Homo sapiens, UniProt P05177);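 also: PubChem cytochrome P450 panel assay, CYP1A2 panel member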
T2 sequence (P05177 whole entry): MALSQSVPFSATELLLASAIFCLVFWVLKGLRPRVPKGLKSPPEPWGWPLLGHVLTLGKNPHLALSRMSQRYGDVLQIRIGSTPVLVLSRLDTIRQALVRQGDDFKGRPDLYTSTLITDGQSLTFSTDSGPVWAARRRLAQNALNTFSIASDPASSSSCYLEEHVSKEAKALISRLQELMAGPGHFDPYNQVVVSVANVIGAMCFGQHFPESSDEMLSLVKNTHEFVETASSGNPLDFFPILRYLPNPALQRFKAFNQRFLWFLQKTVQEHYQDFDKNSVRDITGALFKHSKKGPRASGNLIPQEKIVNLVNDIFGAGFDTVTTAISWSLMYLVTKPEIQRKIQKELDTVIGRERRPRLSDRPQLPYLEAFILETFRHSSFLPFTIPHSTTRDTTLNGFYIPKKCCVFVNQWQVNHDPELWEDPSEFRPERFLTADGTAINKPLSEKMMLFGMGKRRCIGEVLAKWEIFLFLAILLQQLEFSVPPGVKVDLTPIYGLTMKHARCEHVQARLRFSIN

Sequence of Cytochrome P450 2C19 (P33261 whole entry): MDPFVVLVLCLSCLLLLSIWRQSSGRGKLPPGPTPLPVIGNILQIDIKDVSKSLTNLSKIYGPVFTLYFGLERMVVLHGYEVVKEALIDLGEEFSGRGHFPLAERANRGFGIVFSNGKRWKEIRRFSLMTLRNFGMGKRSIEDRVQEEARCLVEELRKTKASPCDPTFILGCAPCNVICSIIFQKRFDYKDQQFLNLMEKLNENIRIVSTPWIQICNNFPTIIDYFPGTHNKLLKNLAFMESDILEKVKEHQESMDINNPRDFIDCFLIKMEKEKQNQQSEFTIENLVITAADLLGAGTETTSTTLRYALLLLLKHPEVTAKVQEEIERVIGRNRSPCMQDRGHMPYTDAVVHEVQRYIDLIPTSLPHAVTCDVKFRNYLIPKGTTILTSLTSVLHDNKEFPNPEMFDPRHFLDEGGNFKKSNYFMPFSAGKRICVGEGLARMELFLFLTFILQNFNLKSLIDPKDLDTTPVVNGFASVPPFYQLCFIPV
Sequence of Cytochrome P450 2C9 (P11712 whole entry): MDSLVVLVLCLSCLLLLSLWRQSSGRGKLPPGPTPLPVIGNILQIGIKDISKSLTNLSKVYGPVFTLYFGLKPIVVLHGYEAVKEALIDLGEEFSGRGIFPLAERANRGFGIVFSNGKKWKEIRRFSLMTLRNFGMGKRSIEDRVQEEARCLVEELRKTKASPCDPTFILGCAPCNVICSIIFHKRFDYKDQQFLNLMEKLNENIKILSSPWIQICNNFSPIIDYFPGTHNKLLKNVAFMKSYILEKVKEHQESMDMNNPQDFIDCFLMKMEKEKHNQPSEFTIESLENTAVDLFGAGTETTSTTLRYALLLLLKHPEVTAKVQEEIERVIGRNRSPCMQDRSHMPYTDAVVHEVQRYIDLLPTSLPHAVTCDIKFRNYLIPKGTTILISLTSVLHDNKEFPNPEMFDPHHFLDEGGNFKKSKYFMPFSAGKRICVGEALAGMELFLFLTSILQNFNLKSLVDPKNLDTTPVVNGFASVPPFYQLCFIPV
Sequence of Cytochrome P450 3A4 (P08684 whole entry): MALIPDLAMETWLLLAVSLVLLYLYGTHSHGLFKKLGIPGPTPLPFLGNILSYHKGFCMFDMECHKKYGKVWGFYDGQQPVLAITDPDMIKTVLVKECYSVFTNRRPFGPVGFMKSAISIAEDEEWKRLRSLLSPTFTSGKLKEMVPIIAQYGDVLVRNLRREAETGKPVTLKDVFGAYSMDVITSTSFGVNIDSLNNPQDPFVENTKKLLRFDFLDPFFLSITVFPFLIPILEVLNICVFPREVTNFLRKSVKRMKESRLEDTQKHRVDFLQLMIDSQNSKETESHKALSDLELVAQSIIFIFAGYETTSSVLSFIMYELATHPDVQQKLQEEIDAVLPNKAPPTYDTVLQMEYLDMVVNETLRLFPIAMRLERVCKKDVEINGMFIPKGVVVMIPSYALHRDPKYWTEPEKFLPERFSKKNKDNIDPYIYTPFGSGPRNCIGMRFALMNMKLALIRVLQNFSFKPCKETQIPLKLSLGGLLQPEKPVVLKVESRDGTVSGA

C=CCN1C(=O)c2cccc3c(N4CCCCC4)ccc(c23)C1=O
EC50 [1]: 5.47 µM (active)

Cc1ccc(C(C(=O)NCc2ccccc2)N(Cc2cccs2)C(=O)c2ccc3c(c2)OCCO3)cc1 (stereo unspecified)
IC50 (H9c2): > 79 µM (inactive)

COc1cc(C(=O)Nc2nc(OC)c(-c3ccccc3)c(OC)n2)cc(OC)c1OC
IC50 (H9c2): > 79 µM (inactive)

CC(=O)Nc1ccc(Sc2ncccc2C(=O)Nc2ccc(OC(F)(F)F)cc2)cn1
EC50 [1]: 2.96 µM (active)

Cc1sc2nc(SCC(=O)N3CCOCC3)nc(O)c2c1C
IC50 (H9c2): > 79 µM (inactive)

NC(=O)c1ccccc1OCC(=O)NC12CC3CC(CC(C3)C1)C2
IC50 (H9c2): 36.9 µM (inactive)

Cc1ccc(C(=O)N/C(=C\c2ccc(-c3ccc([N+](=O)[O-])cc3)o2)C(=O)NC2CCS(=O)(=O)C2)cc1 (stereo unspecified)
EC50 [1]: 8.22 µM (active)

N#Cc1c(-c2ccc(F)cc2)cc(-c2ccccc2)nc1SCC(=O)NCC(=O)O
EC50 [1]: 5.47 µM (active)

CCCCCC(=O)NC(=S)NNC(=O)c1ccc([N+](=O)[O-])cc1
EC50 [1]: 5.19 µM (active)

COc1ccc(NC(=O)CN(C)C(=O)Cc2nnc(O)c3ccccc23)cc1
IC50 (H9c2): 19.6 µM (active)

CCCCn1c(SC(C)C(N)=O)nc2cc(C(=O)OC)ccc2c1=O (stereo unspecified)
AC50 (Cytochrome P450 2C19): 3.55 µM (inconclusive) | AC50 (Cytochrome P450 2C9): 8.91 µM (inconclusive)

CN(C)CC(O)COc1cc2ccccc2cc1C(=O)N1CCCCC1 (stereo unspecified)
EC50 [2]: > 150 µM (inactive)

COc1ccc(S(=O)(=O)N(CC(=O)NCC2CCCO2)c2ccc(F)cc2)cc1OC (stereo unspecified)
AC50 (Cytochrome P450 2C19): 10 µM (inconclusive) | AC50 (Cytochrome P450 2C9): 10 µM (inconclusive)

COc1ccc(NC(=O)CSc2nc(O)cc(=O)n2-c2ccc(OC)cc2)cc1
EC50 (Streptococcus): 26 µM (inconclusive) | EC50 [3]: 13.9 µM (active)

CC(C)=CCc1ccc(=O)c(O)cc1C(C)C
IC50 (H9c2): > 79 µM (inactive)

COc1cccc(N2CCN(C(=O)Nc3ccc4c(c3)NC(=O)CO4)CC2)c1
AC50 (Cytochrome P450 2C9): 12.6 µM (inconclusive)

COc1ccc(NC(=O)CCOc2cc(C)ccc2C)cc1S(=O)(=O)N1CCCCC1
AC50 [4]: 10.4 µM (active)

Cc1cc(C)cc(-n2nnnc2-c2cn(C)nc2C(F)(F)F)c1
AC50 (Cytochrome P450 3A4): 15.8 µM (inconclusive)

CC(C)NC(=Nc1ccc(Cl)cc1)c1cccnc1
AC50 (Cytochrome P450 2C19): 6.31 µM (inconclusive) | AC50 (Cytochrome P450 3A4): 22.4 µM (inconclusive)

COc1ccc(NC(=O)CCCc2nc(O)c3ccccc3n2)cc1Cl
IC50 (H9c2): > 79 µM (inactive)

COc1cc(-c2cc(NC(C)=O)c3ncc(-c4ccc(F)cc4)n3c2)cc(OC)c1OC
IC50 (H9c2): > 79 µM (inactive)

O=C(Cc1nnc(O)c2ccccc12)NCc1ccccn1
IC50 (H9c2): 35.7 µM (inactive)

COc1ccc(C(=O)NN/C=C/C(=O)c2ccc(Br)cc2)cc1
IC50 (H9c2): > 79 µM (inactive)

CCN(CC)S(=O)(=O)c1cccc(C(=O)N/N=C/c2ccccn2)c1
IC50 (H9c2): > 79 µM (inactive)

COc1ccc(OC)c(/C=N/Nc2nncn2/N=C/c2cc(OC)ccc2OC)c1
IC50 (H9c2): > 79 µM (inactive)

C/C(CC(=O)NCc1ccco1)=N\NC(=O)Cc1ccc(Cl)cc1
AC50 (Cytochrome P450 2C19): 22.4 µM (inconclusive) | AC50 (Cytochrome P450 3A4): 15.8 µM (inconclusive) | AC50 (Cytochrome P450 2C9): 25.1 µM (inconclusive) | AC50 (Cytochrome P450 1A2): 20 µM (inconclusive)

N#CCCn1cc(/C=N/O)c(-c2ccc(Cl)cc2)n1
AC50 (Cytochrome P450 2C9): 15.8 µM (inconclusive)

CC(=O)O[C@H]1CC[C@H]2[C@@H]3CC[C@H]4[C@@H](O)[C@H](O)CC[C@]4(C)[C@H]3CC[C@]12C
AC50 [4]: > 70 µM (inactive)

CN(C)c1nc(N)c(C(=O)NC(=N)N)nc1Cl
AC50 (Cytochrome P450 3A4): 10 µM (inconclusive)
